According to patent publication US20160136120A1, “TRANSDERMAL DELIVERY KITS” (ASCLEMED USA, INC. dba EnovaChem Manufacturing, priority 2013, published 2016):

Experiment: Stability tests of API mixed with Microderm base, stored in a jar with closed lid (LC-UV assay)
Type: physicochemical
Conditions: as illustrated in the stability studies
Protocol: The stability tests were carried out by mixing the API (USP strength) with Microderm™, and placing the resulting composition in ajar with a closed lid.
Column: 4.6-mm×25.0-cm; 5-μm packing L1
Storage condition: 20° C. to 25° C. (68° F. to 77° F.)

NCC(CC(=O)O)c1ccc(Cl)cc1 (stereo not drawn) [Baclofen, β-(4-chlorophenyl)-γ-aminobutyric acid]
Susceptibility to degradation: particularly susceptible to degradation
